Test results taken from patent publication US20260053794A1, “SOMATOSTATIN RECEPTOR 2 AGONISTS AND USES THEREOF” (Exelixis, Inc., priority 2022, published 2026).

Each compound was assayed against T1, Somatostatin Receptor 2 (SSTR2) (Homo sapiens, UniProt P30874) (assay: Biochemical Assay for Activation of Somatostatin Receptor 2 (SSTR2), Cisbio HTRF cAMP assay). Settings: average pEC50; HTRF cAMP assay in stably-transfected cell line expressing SSTR2; cells incubated with compounds for 1-2h.
T1 construct: expressed in transfected cells
Format: cell-based
Method: Biochemical Assay for Activation of Somatostatin Receptor 2 (SSTR2)
Agonistic activation of SSTRs leads to an […] production of intracellular cAMP levels. Cisbio's homogeneous time-resolved fluorescence (HTRF) cAMP assay was used to measure cAMP concentration in an high-throughput format. Increase in intracellular cAMP concentrations was measuring using a stably-transfected cell line expressing SSTR2. Test compounds were dissolved in DMSO. Cells were incubated with compounds for 1-2h, and subsequently competitive binding of cAMP produced due to the activation of SSTR2 by the test compounds was measured using the Cisbio cAMP Gs dynamic assay system (Perkin Elmer, Bedford, MA).
The average pEC50 was determined for the test compounds.

T1 sequence (P30874 whole entry, species assumed): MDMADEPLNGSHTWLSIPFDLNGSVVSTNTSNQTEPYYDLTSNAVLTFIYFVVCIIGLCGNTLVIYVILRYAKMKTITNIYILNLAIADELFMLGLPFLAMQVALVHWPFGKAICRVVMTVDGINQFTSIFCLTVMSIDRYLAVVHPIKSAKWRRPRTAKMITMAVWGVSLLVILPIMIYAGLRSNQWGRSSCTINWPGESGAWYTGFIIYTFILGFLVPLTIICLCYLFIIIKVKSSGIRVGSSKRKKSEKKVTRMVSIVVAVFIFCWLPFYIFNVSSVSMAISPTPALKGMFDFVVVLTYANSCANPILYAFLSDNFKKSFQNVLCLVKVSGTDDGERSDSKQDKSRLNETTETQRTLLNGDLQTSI

`N#Cc1cccc(-c2cc3c(N4CCC(N)CC4)c(-c4cc(F)cc(F)c4)cnc3o2)c1O` [Compound 131] and `N#Cc1cccc(-c2cc3ncc(-c4cc(F)cc(F)c4)c(N4CCC(N)CC4)c3s2)c1O` [Compound 132] cannot be ordered by EC50: > 10000 nM for the first, > 10000 nM for the second.

`COc1cc(F)cc(-c2cnc3c(nc(-c4cccc(C#N)c4O)n3C)c2N2CC[C@@H](N)[C@H](OC)C2)c1` [Compound 29] and `COc1cc(F)cc(-c2cnc3[nH]c(-c4cccc(C#N)c4O)nc3c2N2CC[C@@H](N)[C@H](OC)C2)c1` [Compound 51] cannot be ordered by EC50: > 10000 nM for the first, > 10000 nM for the second.

Compared with `N[C@@H]1CCN(c2c(-c3cc(F)cc(F)c3)cnc3c2C(=O)N(c2ccc(F)c(F)c2)CC3)C1` [Compound 113], `Cc1cc(F)cc(-c2cnc3c(c2N2CCC(N)CC2)C(=O)N(c2ccc(F)c(F)c2)CC3)c1` [Compound 111] is lower in EC50: > 10000 nM for the first, 15.8 nM for the second. The second is the more potent here.

Compared with `COc1cc(F)cc(-c2cnc3[nH]c(-c4cc(F)cc(C(N)=O)c4)nc3c2N2CC[C@@H](N)[C@H](OC)C2)c1` [Compound 50], `CO[C@@H]1CN(c2c(-c3cc(C)cc(F)c3)cnc3[nH]c(-c4cc(F)cc(C(N)=O)c4)nc23)CC[C@H]1N` [Compound 53] is lower in EC50: > 10000 nM for the first, 1000 nM for the second. The second is the more potent here.

First: N#Cc1cccc(-c2ccc3ncc(-c4cc(F)cc(F)c4)c(C4=CCC(N)CC4)c3c2)c1O (stereo not shown) [Compound 125]
Second: N#Cc1cccc(-c2ccc3ncc(-c4cc(F)cc(F)c4)c(OC4CCCC(N)C4)c3c2)c1O (stereo not shown) [Compound 22]
The EC50 of the first is lower: 5.01 nM for the first, > 10000 nM for the second. The first is the more potent here.

Going from `N#Cc1cccc2c1OCCO[C@H]1CN(CC[C@@H]1N)c1c(-c3cc(F)cc(F)c3)cnc3ccc-2cc13` [Compound 77] to `N#Cc1cccc2c1OCCC(CO)NC1CCN(CC1)c1c(-c3cc(F)cc(F)c3)cnc3ccc-2cc13` (stereo not shown) [Compound 92], the EC50 rises from 6.31 nM to > 10000 nM. The first is the more potent here.

Going from `Cc1cc(F)cc(-c2cnc3ccc(-c4cc(F)cc(C(N)=O)c4)cc3c2O[C@@H]2CC[C@@H](N)C2)c1` [Compound 4] to `Cc1cc(F)cc(-c2cnc3ccc(-c4cc(F)cc(C(N)=O)c4)cc3c2O[C@H]2C[C@H](N)C2)c1` [Compound 19], the EC50 rises from 0.398 nM to 1 nM (2.5-fold). The first is the more potent here.

Compared with `CN1c2c(cnc3ccc(-c4cc(F)cc(F)c4)cc23)-c2cc(F)cc(F)c2C1CCN` (stereo not shown) [Compound 157], `N[C@H]1CC[C@@H](Oc2c(-c3cc(F)cc(F)c3)cnc3ccc(-c4cc(F)cc(F)c4)cc23)C1` [Compound 13] is 10-fold higher in EC50: 10 nM for the first, 100 nM for the second. The first is the more potent here.

`N#Cc1cccc(-c2ccc3ncc(-c4cc(F)cc(F)c4)c(-c4ccc(N)cc4)c3c2)c1O` [Compound 122, 3-(4-(4-aminophenyl)-3-(3,5-difluorophenyl)quinolin-6-yl)-2-hydroxy benzonitrile] and `Cc1cc(F)cc(-c2cnc3ccc(-c4cccc(C#N)c4O)cc3c2N2CCC(O)CC2)c1` [Compound 164] cannot be ordered by EC50: > 10000 nM for the first, > 10000 nM for the second.

First: Cc1cc(F)cc(-c2cnc3ccc4cc3c2N2CCC(CC2)NCC[C@@H](N)COc2c(C#N)cccc2-4)c1 (single isomer, unassigned) [Compound 98]
Second: Cc1cc(F)cc(-c2cnc3ccc4cc3c2N2CCC(CC2)NCC(N)CCOc2c(C#N)cccc2-4)c1 (stereo not shown) [Compound 95, 7-amino-23-(3-fluoro-5-methylphenyl)-4-oxa-9-aza-2(4,6)-quinolina-1(1,4)-piperidina-3(1.2)-benzenacyclononaphane-33-carbonitrile]
The EC50 of the first is 40-fold higher: 316 nM for the first, 7.94 nM for the second. The second is the more potent here.

First: C=CCOc1c(C#N)cccc1-c1ccc2ncc(-c3cc(F)cc(F)c3)c(N3CCC(N)CC3)c2c1 [Compound 142]
Second: COc1c(C#N)cccc1-c1ccc2ncc(-c3cc(F)cc(F)c3)c(N3CCC(N)CC3)c2c1 [Compound 154]
The EC50 of the first is 1.6-fold higher: 0.501 nM for the first, 0.316 nM for the second. The second is the more potent here.

First: NC1CCN(c2c(-c3cc(F)cc(F)c3)cnc3cc(-c4cc(F)cc(F)c4)sc23)CC1 [Compound 133]
Second: CCOC(=O)c1cc(-c2cc(F)cc(F)c2)cc2c(N3CCC(N)CC3)c(-c3cc(F)cc(F)c3)cnc12 [Compound 147]
The EC50 of the first is 40000-fold higher: 1580 nM for the first, 0.0398 nM for the second. The second is the more potent here.

Going from `N#Cc1cccc2c1NCCCNC1CCN(CC1)c1c(-c3cc(F)cc(F)c3)cnc3ccc-2cc13` [Compound 93] to `O=C1NCCCCNC2CCN(CC2)c2c(-c3cc(F)cc(F)c3)cnc3ccc(cc23)-c2cccnc21` [Compound 84], the EC50 rises from 158 nM to > 10000 nM. The first is the more potent here.

Compared with `Cn1c(-c2cccc(Br)c2O)nc2c(N3CCC(N)CC3)c(-c3cc(F)cc(F)c3)cnc21` [Compound 41], `Cn1c(-c2cccc(C#N)c2O)nc2c(N3CCC(N)CC3)c(-c3cc(F)cc(F)c3)cnc21` [Compound 43] is 40-fold higher in EC50: 158 nM for the first, 6310 nM for the second. The first is the more potent here.

Compared with `Cc1cc(F)cc(-c2cnc3ccc4cc3c2N2CCC(CC2)NCCCCOc2ccccc2-4)c1` [Compound 76], `Cc1cc(F)cc(-c2cnc3ccc4cc3c2N2CCC(CC2)NCCCCOc2c(C#N)cccc2-4)c1` [Compound 73] is 3.2-fold lower in EC50: 0.0794 nM for the first, 0.0251 nM for the second.

Compared with `CO[C@@H]1CN(c2c(-c3cc(F)cc(F)c3)cnc3[nH]c(-c4cc(F)cc(C(N)=O)c4)nc23)CC[C@H]1N` [Compound 47], `NC(=O)c1cc(F)cc(-c2nc3c(N4CCC(N)CC4)c(-c4cc(F)cc(F)c4)cnc3[nH]2)c1` [Compound 65] is 3.2-fold higher in EC50: 1000 nM for the first, 3160 nM for the second.

Going from `CN1CCCCNC2CCN(CC2)c2c(-c3cc(F)cc(F)c3)cnc3ccc(cc23)-c2cccc(n2)C1=O` [Compound 82, 24-(3,5-difluorophenyl)-11-methyl-2,6,11,22,27-pentaazapentacyclo[16.6.2.2^2,^5.1^13,^17.0^21,^25]nonacosa-1(24),13(27),14,16,18(26),19,21(25),22-octaen-12-one] to `CN1CCCCNC2CCN(CC2)c2c(-c3cc(F)cc(F)c3)cnc3ccc(cc23)-c2cccnc2C1=O` [Compound 85], the EC50 rises from 25.1 nM to 6310 nM (250-fold). The first is the more potent here.

First: NCCCn1c(=O)n2c3ccccc3cc2c2cncc(-c3cc(F)cc(F)c3)c21 [Compound 105, 5-(3-aminopropyl)-4-(3,5-difluorophenyl)pyrido[4′,3′:4,5]pyrimido [1,6-a]indol-6(5H)-one]
Second: CNCCCn1c(=O)n2c3cc(F)c(F)cc3nc2c2cncc(-c3cc(F)cc(F)c3)c21 [Compound 106, 4-(3,5-difluorophenyl)-9,10-difluoro-5-(3-(methylamino)propyl) benzo[4,5]imidazo[1,2-c]pyrido[3,4-e]pyrimidin-6(5H)-one]
The EC50 of the first is higher: > 10000 nM for the first, 2000 nM for the second. The second is the more potent here.

Going from `NC1CCN(c2c(-c3cc(F)cc(F)c3)cnc3nc(-c4cccc(Br)c4O)[nH]c23)CC1` [Compound 64] to `Cc1cc(F)cc(-c2cnc3[nH]c(-c4cc(F)cc(C(N)=O)c4)nc3c2N2CCC(N)CC2)c1` [Compound 61], the EC50 rises from 31.6 nM to 50.1 nM (1.6-fold). The first is the more potent here.

`Cn1c(-c2ccc3[nH]c(=O)[nH]c3c2)nc2c(N3CCC(N)CC3)c(-c3cc(F)cc(F)c3)cnc21` [Compound 39] and `CO[C@@H]1CN(c2c(-c3cc(F)cc(F)c3)cnc3[nH]c(-c4ccc5[nH]c(=O)[nH]c5c4)nc23)CC[C@H]1N` [Compound 46, 5-(7-((3R,4R)-4-amino-3-methoxypiperidin-1-yl)-6-(3,5-difluorophenyl)-3H-imidazo[4,5-b]pyridin-2-yl)-1,3-dihydro-2H-benzo[d]imidazol-2-one] cannot be ordered by EC50: > 10000 nM for the first, > 10000 nM for the second.

First: NC1CCN(c2c(-c3nc4cc(F)c(F)cc4[nH]3)cnc3c2-c2cc(F)ccc2CO3)CC1 [Compound 121, 1-(2-(5,6-difluoro-1H-benzo[d]imidazol-2-yl)-9-fluoro-6H-isochromeno[3,4-b]pyridin-1-yl)piperidin-4-amine]
Second: NC1CCN(c2c(-c3nc4cc(F)c(F)cc4[nH]3)cnc3ncc4ccc(F)cc4c23)CC1 [Compound 120]
The EC50 of the first is 10-fold lower: 631 nM for the first, 6310 nM for the second.

Going from `COc1cc(F)cc(-c2cnc3ccc(-c4cccc(C#N)c4O)cc3c2O[C@@H]2CC[C@H](N)C2)c1` [Compound 7] to `COc1cc(F)cc(-c2cnc3ccc(-c4ccc5[nH]c(=O)[nH]c5c4)cc3c2O[C@@H]2CC[C@H](N)C2)c1` [Compound 6], the EC50 rises from 20 nM to 63.1 nM (3.2-fold). The first is the more potent here.

Compared with `N[C@H]1CC[C@@H](Oc2c(-c3cc(F)cc(F)c3)cnc3ccc(-c4ccc5[nH]c(=O)[nH]c5c4)cc23)C1` [Compound 11], `Cc1cc(F)cc(-c2cnc3ccc(-c4ccc5[nH]c(=O)[nH]c5c4)cc3c2O[C@@H]2CC[C@H](N)C2)c1` [Compound 8] is 63-fold lower in EC50: 398 nM for the first, 6.31 nM for the second. The second is the more potent here.

Compared with `Cc1cc(F)cc(-c2cnc3ccc4cc3c2N2CCC(CC2)NCCCCOc2c(C(N)=O)cccc2-4)c1` [Compound 74], `Cc1cc(F)cc(-c2cnc3ccc4cc3c2N2CCC(CC2)NCCCNC(=O)c2ccccc2-4)c1` [Compound 86] is 25000-fold higher in EC50: 0.251 nM for the first, 6310 nM for the second. The first is the more potent here.

First: CNCCCNc1c(C(=O)Nc2ccc(F)c(F)c2)cncc1-c1cc(F)cc(F)c1 [Compound 117]
Second: N#Cc1cccc(-c2ccc3ncc(-c4cc(F)cc(F)c4)c(N4CCC(O)CC4)c3c2)c1NCCCN [Compound 146]
The EC50 of the first is 5-fold higher: 2000 nM for the first, 398 nM for the second. The second is the more potent here.

First: COc1cc(F)cc(-c2cnc3c(nc(-c4cc(F)cc(C(N)=O)c4)n3C)c2N2CC[C@@H](N)[C@H](OC)C2)c1 [Compound 30]
Second: Cn1c(-c2cccc(C#N)c2O)nc2c(N3CCC(NC(=O)OC(C)(C)C)CC3)c(-c3cc(F)cc(F)c3)cnc21 [Compound 42]
The EC50 of the first is lower: 1000 nM for the first, > 10000 nM for the second. The first is the more potent here.

`NC1CCN(c2c(-c3cc(F)cc(F)c3)cnc3ccc(C4=CC=CC5(O)C(=O)NCCN45)cc23)CC1` (stereo not shown) [Compound 151] and `Fc1cc(F)cc(-c2cnc3ccc4cc3c2N2CCC(CC2)NCCCCCOc2cccc-4c2)c1` [Compound 69] are within 1.5-fold of each other in EC50: 1.58 nM for the first, 1.26 nM for the second.

Going from `Cc1cc(F)cc(-c2c[n+]3c4ccc(cc4c2N2CCC(N)CC2)-c2ccccc2OCCCC3)c1` [Compound 161] to `Cc1cc(F)cc(-c2cnc3c(nc(-c4cccc(C#N)c4O)n3C)c2N2CCC(N)CC2)c1` [Compound 37], the EC50 rises from 10 nM to 316 nM (32-fold). The first is the more potent here.

`COCOc1c(C#N)cccc1-c1ccc2ncc(-c3cc(F)cc(F)c3)c(N3CC4(CNC4)C3)c2c1` [Compound 138] and `COCOc1c(C#N)cccc1-c1ccc2ncc(-c3cc(F)cc(F)c3)c(N3CC4(CN(C(C)=O)C4)C3)c2c1` [Compound 139] cannot be ordered by EC50: 6310 nM for the first, > 5010 nM for the second.
